Tests used:
[1] = target: T1, ADP-ribosyl cyclase/cyclic ADP-ribose hydrolase 1 (Homo sapiens, UniProt P28907)
T1 sequence (P28907 whole entry): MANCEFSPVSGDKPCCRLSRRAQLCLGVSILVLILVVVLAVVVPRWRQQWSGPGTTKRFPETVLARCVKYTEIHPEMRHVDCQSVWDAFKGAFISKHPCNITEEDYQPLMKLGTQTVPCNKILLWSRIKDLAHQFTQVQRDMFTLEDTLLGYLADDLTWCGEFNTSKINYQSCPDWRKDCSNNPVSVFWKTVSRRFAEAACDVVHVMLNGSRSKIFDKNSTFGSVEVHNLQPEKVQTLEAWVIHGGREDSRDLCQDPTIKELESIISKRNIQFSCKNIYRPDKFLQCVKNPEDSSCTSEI
Description: Inhibition of human his tagged CD38 using N6-etheno-NAD as substrate by fluorescence microplate reader assay

[2] = Drug exposure in mouse plasma assessed as AUC of drug at 3 mg/kg, po; assay type: ADME, organism-based; parameters: dose 3 mg/kg, route po

IC50 [1] | AUC [2] | SMILES
> 100 µM |  | COCCO[C@H]1CC[C@H](NC(=O)c2cc(-c3cncs3)cn3ccnc23)CC1
 | 75 ng·h/mL | COCCO[C@H]1CC[C@H](NC(=O)c2cc(-c3cncs3)cc3[nH]cc(C#N)c23)CC1
 | 5110 ng·h/mL | COCCO[C@H]1CC[C@H](NC(=O)c2cc(-c3cncs3)c(F)c3[nH]ccc23)CC1
> 100 µM |  | COCCO[C@H]1CC[C@H](NC(=O)c2cc(-c3cscn3)cc3cc[nH]c23)CC1

Reference: ChEMBL document CHEMBL5143723, “Orally Bioavailable Enzymatic Inhibitor of CD38, MK-0159, Protects against Ischemia/Reperfusion Injury in the Murine Heart” (J Med Chem, 2022)
